We go through 4 compounds from patent US20190337978A1, “CRYSTALLIZATION METHODS USING FUNCTIONALIZED NANOPOROUS MATRICES AND RELATED SYSTEMS” (Massachusetts Institute of Technology, priority 2018, published 2019).

In general, solubility refers to the concentration that dissolves in the medium under given conditions.

Values after ≈ are worked out from the molar mass of the structure shown. Structures can show the parent of a compound that is named as a salt.

Series [1] is described as follows: physchem. Conditions: 25 °C, thermodynamic from solid.
Series [2] in a line: Batch crystallization with Zorbax, mother liquor concentration via HPLC. Conditions: after batch crystallization of saturated isopropyl alcohol solution with Zorbax, stirred 6 h at 25° C.; effective solubility. The series is classed as physicochemical.
Series [3] can be described thus: Capillary XRPD with Zorbax, critical minimum concentration for crystallization. The note with it: isopropyl alcohol solutions in capillaries containing functionalized Zorbax.
Description: In order to test this hypothesis, solutions of successively lower concentrations were loaded into capillaries containing the functionalized Zorbax® and tested for the presence of crystals. […] The tubes were made of glass #50, with a 1.0 mm OD, wall thickness of 0.01 mm and length of 80 mm. The capillary tubes were packed with Zorbax® or CPG material by scooping powder into the tip, placing the capillary in a larger diameter glass pipette, and tapping to allow gravity to act on the powder to settle. Once packed, the tubes were suctioned at the open end with a 1-mL plastic syringe, using a small piece of rubber tubing to adapt the fit. The filled capillary was then immediately dipped into the undersaturated API solutions to allow the solution to fill the tube. Molten wax was used to plug the end of the capillary, and the tip was then heated in a Bunsen burner flame to seal. Additional capillaries were filled with the API solution and dry commercial API alone.
To check the hypothesis that there exists a critical minimum undersaturation below which the Zorbax® cannot induce crystallization, solutions of successively decreasing concentrations were tested with the capillary method.

Turning to `CC(=O)Nc1ccc(O)cc1` [Acetaminophen], the solubility in series [1] (water) is 15.5 mg/mL (≈ 103 mM).

With `CC(=O)Oc1ccccc1C(=O)O` [Aspirin], the solubility in series [1] (organic solvent or mixture) came out at 90 mg/mL (≈ 500 mM). This compound gave a Mother liquor concentration in series [2] of 66.8 mg/mL. For the same compound, the “Concentration range from XRPD (critical minimum concentration for crystallization to occur)” value (shortened to “Concentration range from XRPD”) in series [3] is 65000 to 70000 µg/mL.

On to `CN(C)CCOC(c1ccccc1)c1ccccc1` [Diphenhydramine hydrochloride], for which, in series [3], the “Concentration range from XRPD” value fell in the range of 25000 to 27000 µg/mL.

As for `NC(=O)c1cccnc1` [Nicotinamide], the solubility in series [1] (organic solvent or mixture) amounted to 46.5 mg/mL (≈ 381 mM). In series [2], the Mother liquor concentration was determined as 33.2 mg/mL. The “Concentration range from XRPD” value in series [3] fell in the range of 30000 to 35000 µg/mL.
